Results as given in patent US6376670B1, “Quinoline-indole antimicrobial agents, uses and compositions related thereto” (Sepracor Inc., priority 1997, dated 2002).
Read-outs that look alike come from different tables or passages of the source.

Experiments:
Assay in all cases: Determination of MIC values (BHI broth, 96 well microtiter plate)
Format in all cases: cell-based
[1] = test system: methicillin-resistant Staphylococcus aureus (MRSA); details: MRSA, BHI broth; for MIC: Staphylococcus aureus, read-out: MIC MRSA
Outline: (§1)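 MIC was read as the lowest drug concentration without observable growth after roughly 16 h at 37 °C under about 7–10% CO2. Wells held BHI broth with compound at final 25–0.39 μg/mL (1:100 from DMSO dilutions). Each well was inoculated at 10^5–10^6 cells/mL.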

Streptococcus pneumoniae = details: Streptococcus pneumoniae, BHI broth, read-out: MIC S. pneu
Outline: as §1

[2] = test system: vancomycin-resistant Enterococcus spp. (VRE); details: BHI broth; for MIC: Enterococcus, VRE, read-out: MIC VREF
Outline: as §1

[3] = 16 h, 37° C., overnight (about 16 hours)
[4] = 37° C., overnight (about 16 hours)

SMILES | MIC ([1]; overnight 37° C.) [µg/mL] | MIC (Streptococcus pneumoniae; S. pneu, overnight 37° C.) [µg/mL] | MIC ([2]; VREF, overnight 37° C.) [µg/mL] | MIC ([1]; 16 h, 37° C., about 16 hours) [µg/mL] | MIC (Streptococcus pneumoniae; 37° C., about 16 hours) [µg/mL] | MIC ([2]; 16 h, 37° C., about 16 hours) [µg/mL] | further results
Fc1ccc2c(-c3ccc4cc(Cl)ccc4n3)c[nH]c2c1 [Example 288] | < 7 | < 7 | < 7 | – | – | – | –
COc1ccc2[nH]c(C)c(-c3ccc4c([N+](=O)[O-])cccc4n3)c2c1 [Example 386] | > 25 | > 25 | > 25 | – | – | – | –
Clc1ccc2nc(-c3c[nH]c4ccc(Cl)cc34)ccc2c1 [Example 169] | – | – | – | – | – | – | MIC [1, 3]: < 7 µg/mL; MIC (Streptococcus pneumoniae; [4]): < 7 µg/mL; MIC [2, 3]: > 25 µg/mL
Cc1cccc2c(-c3cc(Cl)c4ccc(Cl)cc4n3)c[nH]c12 [Example 476] | – | – | – | > 25 | < 25 | > 25 | –
NCc1ccc(CNC(=O)c2cc(-c3c[nH]c4cc(F)ccc34)nc3cc(F)ccc23)cc1 [Example 493] | – | – | – | < 25 | < 25 | < 25 | –
Cc1[nH]c2ccc(Cl)cc2c1-c1cc(Cl)c2ccccc2n1 [Example 465] | – | – | – | < 7 | < 7 | < 25 | –
Cn1cc(-c2cc(C(=O)NCCN)c3ccc(F)cc3n2)c2cc(Br)ccc21 [Example 325] | < 7 | < 7 | < 7 | – | – | – | –
Cn1cc(-c2cc(C(=O)NCCN)c3cc(C#CCNCC4CCCCC4)ccc3n2)c2cc(Br)ccc21 [Example 401] | – | – | – | < 7 | < 7 | < 7 | –
Brc1ccc2c(CNCc3ccccc3)cc(-c3c[nH]c4ccc(Br)cc34)nc2c1 [Example 373] | < 7 | < 7 | < 7 | – | – | – | –
NC1CCC(NC(=O)c2cc(-c3c[nH]c4ccc(Br)cc34)nc3ccc(Cl)cc23)CC1 (stereo not drawn) [Example 131] | – | – | – | – | – | – | MIC [1, 3]: < 7 µg/mL; MIC (Streptococcus pneumoniae; [4]): < 7 µg/mL; MIC [2, 3]: < 25 µg/mL
Cn1cc(-c2cc(C(=O)NCC3CCC(CN)CC3)c3ccc(F)cc3n2)c2cc(Br)ccc21 (stereo not drawn) [Example 326] | < 7 | < 7 | < 7 | – | – | – | –
NCC1CCC(CNC(=O)c2cc(-c3c[nH]c4ccc(Br)cc34)nc3ccc(Cl)cc23)CC1 (stereo not drawn) [Example 133] | – | – | – | – | – | – | MIC [1, 3]: < 7 µg/mL; MIC (Streptococcus pneumoniae; [4]): < 7 µg/mL; MIC [2, 3]: < 7 µg/mL
Cc1[nH]c2ccc(Cl)cc2c1-c1ccc2cccc(C)c2n1 [Example 425] | – | – | – | < 7 | < 7 | < 7 | –
CN(CC#Cc1ccc2nc(-c3cn(C)c4ccc(Br)cc34)cc(C(=O)NCc3ccc(CN)cc3)c2c1)C1CCCCC1 [Example 397] | < 7 | < 7 | < 7 | – | – | – | –
Brc1ccc2[nH]cc(-c3nc4ccc(C#CCN5CCCCC5)cc4c4c3CCO4)c2c1 [Example 517] | – | – | – | < 7 | < 7 | > 25 | –
NCCNC(=O)c1cc(-c2c[nH]c3ccc(Br)cc23)nc2cc(Cl)cc(Cl)c12 [Example 295] | < 7 | < 7 | < 7 | – | – | – | –
O=[N+]([O-])c1cccc2nc(-c3c[nH]c4cc(F)ccc34)ccc12 [Example 388] | > 25 | > 25 | > 25 | – | – | – | –
COc1ccc(NC(=O)NCc2cc(-c3c[nH]c4ccc(Br)cc34)nc3cc(Cl)ccc23)cc1 [Example 514] | – | – | – | < 7 | < 7 | > 25 | –
NCc1ccc(CNC(=O)c2cc(-c3c[nH]c4ccc(Br)cc34)nc3ccccc23)cc1 [Example 283] | < 7 | < 7 | < 7 | – | – | – | –
NCC1CCC(CNC(=O)c2cc(-c3c[nH]c4ccc(Br)cc34)nc3ccc(Br)cc23)CC1 (stereo not drawn) [Example 124] | – | – | – | – | – | – | MIC [1, 3]: < 7 µg/mL; MIC (Streptococcus pneumoniae; [4]): < 7 µg/mL; MIC [2, 3]: < 7 µg/mL
Cn1cc(-c2cc(C(=O)NC3CCC(N)CC3)c3cc(Cl)ccc3n2)c2cc(Br)ccc21 (stereo not drawn) [Example 371] | < 7 | < 7 | < 7 | – | – | – | –
Cc1cccc2c(-c3ccc4cc(Cl)ccc4n3)c[nH]c12 [Example 199] | – | – | – | – | – | – | MIC [1, 3]: > 25 µg/mL; MIC (Streptococcus pneumoniae; [4]): > 25 µg/mL; MIC [2, 3]: > 25 µg/mL

SMILES | MIC ([1]; overnight 37° C.) [µg/mL] | MIC (Streptococcus pneumoniae; S. pneu, overnight 37° C.) [µg/mL] | MIC ([2]; VREF, overnight 37° C.) [µg/mL] | MIC ([1]; 16 h, 37° C., about 16 hours) [µg/mL] | MIC (Streptococcus pneumoniae; 37° C., about 16 hours) [µg/mL] | MIC ([2]; 16 h, 37° C., about 16 hours) [µg/mL] | further results
Cc1ccc2nc(-c3c[nH]c4ccc(OCc5ccccc5)cc34)ccc2c1 [Example 469] | – | – | – | < 7 | < 7 | > 25 | –
Cc1ccc2ccc(-c3c[nH]c4cc(F)ccc34)nc2c1 [Example 478] | – | – | – | > 25 | > 25 | > 25 | –
CN1CCN(CC#Cc2ccc3nc(-c4cn(C)c5ccc(Br)cc45)cc(C(=O)NCc4ccc(CN)cc4)c3c2)CC1 [Example 395] | < 7 | < 25 | < 25 | – | – | – | –
O=C(O)c1cc(-c2c[nH]c3ccc(Br)cc23)nc2cc(Cl)c(C#CCN3CCCCC3)cc12 [Example 516] | – | – | – | < 7 | < 7 | < 25 | –
NCC1CCCC(CNC(=O)c2cc(-c3c[nH]c4ccc(Br)cc34)nc3cc(F)ccc23)C1 (stereo not drawn) [Example 298] | – | < 7 | – | – | – | – | MIC MRSA ([1]; overnight 37° C.): < 7 µg/mL; MIC VREF ([2]; VREF, overnight 37° C.): <7 µg/mL
NCCNC(=O)c1cc(-c2c[nH]c3ccc(Br)cc23)nc2c(Cl)cc(I)cc12 [Example 314] | < 7 | < 7 | < 7 | – | – | – | –
NCc1ccc(CNC(=O)c2cc(-c3c[nH]c4ccc(Br)cc34)nc3ccc(I)cc23)cc1 [compound 53] | – | – | – | – | – | – | MIC [1, 3]: < 7 µg/mL; MIC (Streptococcus pneumoniae; [4]): < 7 µg/mL; MIC [2, 3]: < 7 µg/mL
NCC1CCC(CNC(=O)c2cc(-c3c[nH]c4ccc(Br)cc34)nc3ccc(I)cc23)CC1 (stereo not drawn) [Example 114] | – | – | – | – | – | – | MIC [1, 3]: < 7 µg/mL; MIC (Streptococcus pneumoniae; [4]): < 7 µg/mL; MIC [2, 3]: < 7 µg/mL
NCc1ccc(CNC(=O)c2cc(-c3c[nH]c4ccc(Br)cc34)nc3ccc(/C=C/c4ccccc4)cc23)cc1 [Example 228] | > 25 | > 25 | > 25 | – | – | – | –
Cc1ccc2nc(-c3c(C)[nH]c4ccc(Cl)cc34)ccc2c1 [Example 437] | – | – | – | < 7 | < 7 | > 25 | –
COc1ccc2[nH]cc(-c3cc(Cl)c4ccc(Cl)cc4n3)c2c1 [Example 464] | – | – | – | < 7 | < 7 | > 25 | –
Cn1cc(-c2cc(C(=O)NCc3cccc(CN)c3)c3cc(I)ccc3n2)c2cc(Cl)ccc21 [Example 225] | < 7 | < 7 | < 7 | – | – | – | –
NCc1ccc(CNC(=O)c2cc(-c3c[nH]c4ccc(Br)cc34)nc3c(Br)cccc23)cc1 [Example 139] | – | – | – | – | – | – | MIC [1, 3]: < 7 µg/mL; MIC (Streptococcus pneumoniae; [4]): < 7 µg/mL; MIC [2, 3]: < 7 µg/mL
NCC1CCCC(CNC(=O)c2cc(-c3c[nH]c4ccc(Br)cc34)nc3ccc(I)cc23)C1 (stereo not drawn) [Example 115] | – | – | – | – | – | – | MIC [1, 3]: < 7 µg/mL; MIC (Streptococcus pneumoniae; [4]): < 7 µg/mL; MIC [2, 3]: < 7 µg/mL
Cn1cc(-c2ccc3cc(Cl)ccc3n2)c2cc(C#N)ccc21 [Example 218] | < 7 | > 25 | > 25 | – | – | – | –
OCc1cc(-c2c[nH]c3ccc(Br)cc23)nc2c(I)cccc12 [Example 454] | – | – | – | < 7 | < 7 | < 7 | –
NCCCNC(=O)c1cc(-c2c[nH]c3cc(F)ccc23)nc2cc(F)ccc12 [Example 495] | – | – | – | < 25 | < 25 | > 25 | –
Cc1ccc2nc(-c3c[nH]c4ccc(Br)cc34)cc(C(=O)NCc3ccc(CN)cc3)c2c1 [Example 104] | – | – | – | – | – | – | MIC [1, 3]: < 7 µg/mL; MIC (Streptococcus pneumoniae; [4]): < 7 µg/mL; MIC [2, 3]: < 7 µg/mL
Fc1ccc2[nH]cc(-c3ccc4cc(Cl)ccc4n3)c2c1 [Example 191] | – | – | – | – | – | – | MIC [1, 3]: < 7 µg/mL; MIC (Streptococcus pneumoniae; [4]): < 7 µg/mL; MIC [2, 3]: < 25 µg/mL
NCC1CCC(CNC(=O)c2cc(-c3c[nH]c4ccc(Cl)cc34)nc3ccc(I)cc23)CC1 (stereo not drawn) [Example 226] | < 25 | < 7 | < 25 | – | – | – | –
Cc1ccc2nc(-c3c[nH]c4ccc(C)cc34)ccc2c1 [Example 440] | – | – | – | > 25 | < 25 | > 25 | –
